From publication PMC3037272 (Journal of medicinal chemistry, 2010) come the findings set out here.

Assay [1] has as its target T1, 26S proteasome β1 subunit (Oryctolagus cuniculus, UniProt A0A5F9DQW2).
T1 sequence (A0A5F9DQW2 1-212): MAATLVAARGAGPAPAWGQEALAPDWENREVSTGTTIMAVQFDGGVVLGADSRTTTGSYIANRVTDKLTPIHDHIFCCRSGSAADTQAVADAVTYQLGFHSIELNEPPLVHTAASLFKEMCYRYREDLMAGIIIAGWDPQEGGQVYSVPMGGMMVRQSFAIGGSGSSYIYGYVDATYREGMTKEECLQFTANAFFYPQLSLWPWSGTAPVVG
In kind it is biochemical, rabbit.

Assay [2] concerns the target proteasome β5 subunit (Homo sapiens, UniProt P28074). Briefly: Competition assay against fluorescent probe MV151. It is filed as binding. The conditions noted are these: HEK-293 lysate.
For assay [3], the target named is proteasome β2 subunit (Homo sapiens, UniProt Q99436). Description: Competition assay against fluorescent probe MV151. The following applies: HEK-293 lysate.
The target of assay [4] is proteasome β1 subunit (Homo sapiens, UniProt P28072). Description: Competition assay against fluorescent probe MV151. The conditions noted are these: HEK-293 lysate, between 100 and 250 nM, competition against 9. In kind it is binding.
The target in assay [5] is T2, 26S proteasome β5 subunit (Oryctolagus cuniculus, UniProt G1T4Q9).
T2 sequence (G1T4Q9 1-263): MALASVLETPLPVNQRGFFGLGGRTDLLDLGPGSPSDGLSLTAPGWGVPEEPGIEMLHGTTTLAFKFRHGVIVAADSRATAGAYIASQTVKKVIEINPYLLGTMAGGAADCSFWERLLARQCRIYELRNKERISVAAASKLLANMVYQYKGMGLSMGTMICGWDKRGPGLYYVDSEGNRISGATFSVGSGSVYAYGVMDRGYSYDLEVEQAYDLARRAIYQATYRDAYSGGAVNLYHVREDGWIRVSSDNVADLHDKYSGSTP
It is filed as biochemical, rabbit.

For assay [6], the target named is T3, 26S proteasome β2 subunit (Oryctolagus cuniculus, UniProt G1SWK8).
T3 sequence (G1SWK8 1-271): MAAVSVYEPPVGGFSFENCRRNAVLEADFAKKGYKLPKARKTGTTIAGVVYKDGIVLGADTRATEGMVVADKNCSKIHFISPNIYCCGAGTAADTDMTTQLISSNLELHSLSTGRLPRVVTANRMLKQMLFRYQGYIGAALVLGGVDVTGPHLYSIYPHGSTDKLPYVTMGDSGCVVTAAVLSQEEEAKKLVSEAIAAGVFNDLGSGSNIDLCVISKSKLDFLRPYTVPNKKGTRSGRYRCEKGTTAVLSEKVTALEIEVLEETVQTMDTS

In general, IC50 refers to the point on the concentration scale where inhibition reaches its midpoint. With `CC(C)C[C@H](NC(=O)[C@H](Cc1c(F)c(F)c(F)c(F)c1F)NC(=O)[C@H](Cc1ccccc1)NC(=O)[C@H](Cc1ccccc1)N=[N+]=[N-])C(=O)[C@@]1(C)CO1` [4a], the IC50 in assay [1] is > 15000 nM. Besides, the “concentration at which inhibition of β5 is apparent” value in assay [2] (concentration series 1 nM to 1 μM, competition against 9) stood at 5 nM. The “β2 band in competition assay” value in assay [3] (1 μM inhibitor, Figure 3) is given as “the majority of the corresponding band in Figure 3 is gone”. Also, the “effect on β2 when β5 is saturated” value in assay [3] (between 100 and 250 nM, competition against 9) is “unaffected or even upregulated”. The “effect on β1 when β5 is saturated” value in assay [4] is given as “unaffected or even upregulated”.

Take `CC(C)C[C@H](NC(=O)[C@H](Cc1cc(C(F)(F)F)cc(C(F)(F)F)c1)NC(=O)c1cnccn1)B1OC2C[C@@H]3C[C@@H](C3(C)C)[C@]2(C)O1` (some centres unmarked) [2b]: the values for the IC50 in assay [5], in assay [1] and in assay [6] were 3 nM, 160 nM and 11000 nM, respectively.

With `CC(C)C[C@H](NC(=O)[C@H](Cc1ccccc1)NC(=O)[C@H](Cc1cc(C(F)(F)F)cc(C(F)(F)F)c1)NC(=O)[C@H](Cc1ccccc1)N=[N+]=[N-])C(=O)[C@@]1(C)CO1` [5b], the concentration for half-maximal inhibition (IC50) in assay [5] was 130 nM; in assay [1] it was > 15000 nM; in assay [6], > 15000 nM.

Consider `CC(C)C[C@H](NC(=O)[C@H](Cc1ccccc1)NC(=O)[C@H](Cc1c(F)c(F)c(F)c(F)c1F)NC(=O)[C@H](Cc1ccccc1)N=[N+]=[N-])C(=O)[C@@]1(C)CO1` [5a], for which the IC50 in assay [5] is 200 nM; in assay [1] it was > 15000 nM; in assay [6], > 15000 nM.

As to `CC(C)C[C@H](NC(=O)[C@H](Cc1ccccc1)NC(=O)[C@H](Cc1ccccc1)NC(=O)[C@H](Cc1ccccc1)N=[N+]=[N-])C(=O)[C@@]1(C)CO1` [compound 3], in assay [1], the IC50 is > 15000 nM.

Turning to `CC1=CC(C)=[N+]2C1=C(CCCCc1cn([C@@H](Cc3ccccc3)C(=O)N[C@@H](Cc3ccccc3)C(=O)N[C@@H](Cc3c(F)c(F)c(F)c(F)c3F)C(=O)N[C@@H](CC(C)C)C(=O)[C@@]3(C)CO3)nn1)c1c(C)cc(C)n1[B-]2(F)F` [compound 7], the IC50 in assay [5] was 300 nM; in assay [1], > 10000 nM; in assay [6] it was > 10000 nM. In assay [2] (direct fluorescent labeling, read-out at 520 nm), the “concentration at which labeling of the β5 subunit is visible” value was determined as 1 nM.

`CC(C)C[C@H](NC(=O)[C@H](Cc1c(F)c(F)c(F)c(F)c1F)NC(=O)c1cnccn1)B1OC2C[C@@H]3C[C@@H](C3(C)C)[C@]2(C)O1` (some centres unmarked) [2a] had an IC50 in assay [1] of 440 nM.

Consider `CC(C)C[C@H](NC(=O)[C@H](Cc1cc(C(F)(F)F)cc(C(F)(F)F)c1)NC(=O)[C@H](Cc1ccccc1)NC(=O)[C@H](Cc1ccccc1)N=[N+]=[N-])C(=O)[C@@]1(C)CO1` [4b], for which the half-inhibitory concentration (IC50) in assay [5] was 100 nM; in assay [1] it was > 15000 nM; in assay [6], > 15000 nM.
